From ChEMBL document CHEMBL5113415, “Synthesis of 10,10'-bis(trifluoromethyl) marinopyrrole A derivatives and evaluation of their antiviral activities in vitro” (Eur J Med Chem, 2022)

Test system: not listed separately
Assay: Selectivity index, ratio of CC50 for […] to IC50 for JEV-SA14 infected in […]
Assay type: toxicity, cell-based
Details: read-out: Ratio CC50/IC50

| SMILES | selectivity ratio |
| --- | --- |
| [N-]=[N+]=NCCCSc1c(Cl)cc(C(=O)c2ccc(C(F)(F)F)cc2O)n1-c1c(C(=O)c2ccc(C(F)(F)F)cc2O)[nH]c(Cl)c1Cl | 3.44 |
| O=C(c1ccc(C(F)(F)F)cc1O)c1[nH]c(Cl)c(Cl)c1-n1c(C(=O)c2ccc(C(F)(F)F)cc2O)cc(Cl)c1SCCc1ccccn1 | 0.98 |
| O=C(c1ccc(C(F)(F)F)cc1O)c1[nH]c(Cl)c(Cl)c1-n1c(C(=O)c2ccc(C(F)(F)F)cc2O)cc(Cl)c1Sc1nc2ccccc2s1 | 1.68 |
| Cc1nnc(Sc2c(Cl)cc(C(=O)c3ccc(C(F)(F)F)cc3O)n2-c2c(C(=O)c3ccc(C(F)(F)F)cc3O)[nH]c(Cl)c2Cl)s1 | 1.85 |

Test system: not listed separately
Assay: Cytotoxicity against […] infected with DENV-NGC-1 incubated for 7 days by CellTiter 96 luminescent cell viability assay
Assay type: toxicity, cell-based
Details: time 7 day

| SMILES | CC50 at 168 h |
| --- | --- |
| O=C(c1ccc(C(F)(F)F)cc1O)c1[nH]c(Cl)c(Cl)c1-n1c(C(=O)c2ccc(C(F)(F)F)cc2O)cc(Cl)c1Sc1nc2ccccc2s1 | 110 nM |
| Cc1nnc(Sc2c(Cl)cc(C(=O)c3ccc(C(F)(F)F)cc3O)n2-c2c(C(=O)c3ccc(C(F)(F)F)cc3O)[nH]c(Cl)c2Cl)s1 | 440 nM |

Test system: not listed separately
Assay: Cytotoxicity against […] infected with ZIKV-SMGC-1 incubated for 7 days by CellTiter 96 luminescent cell viability assay
Assay type: toxicity, cell-based
Details: time 7 day

| SMILES | CC50 at 168 h |
| --- | --- |
| [N-]=[N+]=NCCCSc1c(Cl)cc(C(=O)c2ccc(C(F)(F)F)cc2O)n1-c1c(C(=O)c2ccc(C(F)(F)F)cc2O)[nH]c(Cl)c1Cl | 500 nM |
| O=C(c1ccc(C(F)(F)F)cc1O)c1[nH]c(Cl)c(Cl)c1-n1c(C(=O)c2ccc(C(F)(F)F)cc2O)cc(Cl)c1SCCc1ccccn1 | 25400 nM |
| O=C(c1ccc(C(F)(F)F)cc1O)c1[nH]c(Cl)c(Cl)c1-n1c(C(=O)c2ccc(C(F)(F)F)cc2O)cc(Cl)c1Sc1nc2ccccc2s1 | 17100 nM |
| Cc1nnc(Sc2c(Cl)cc(C(=O)c3ccc(C(F)(F)F)cc3O)n2-c2c(C(=O)c3ccc(C(F)(F)F)cc3O)[nH]c(Cl)c2Cl)s1 | 440 nM |

Test system: not listed separately
Assay: Selectivity index, ratio of CC50 for […] to IC50 for ZIKV-SMGC-1 infected in […]
Assay type: toxicity, cell-based
Details: read-out: Ratio CC50/IC50

| SMILES | selectivity ratio |
| --- | --- |
| O=C(c1ccc(C(F)(F)F)cc1O)c1[nH]c(Cl)c(Cl)c1-n1c(C(=O)c2ccc(C(F)(F)F)cc2O)cc(Cl)c1SCCc1ccccn1 | 4.07 |
| O=C(c1ccc(C(F)(F)F)cc1O)c1[nH]c(Cl)c(Cl)c1-n1c(C(=O)c2ccc(C(F)(F)F)cc2O)cc(Cl)c1Sc1nc2ccccc2s1 | 0.12 |
| Cc1nnc(Sc2c(Cl)cc(C(=O)c3ccc(C(F)(F)F)cc3O)n2-c2c(C(=O)c3ccc(C(F)(F)F)cc3O)[nH]c(Cl)c2Cl)s1 | 0.57 |

Test system: not listed separately
Assay: Cytotoxicity against […] infected with JEV-SA14 incubated for 7 days by CellTiter 96 luminescent cell viability assay
Assay type: toxicity, cell-based
Details: time 7 day

| SMILES | CC50 at 168 h |
| --- | --- |
| [N-]=[N+]=NCCCSc1c(Cl)cc(C(=O)c2ccc(C(F)(F)F)cc2O)n1-c1c(C(=O)c2ccc(C(F)(F)F)cc2O)[nH]c(Cl)c1Cl | 310 nM |
| O=C(c1ccc(C(F)(F)F)cc1O)c1[nH]c(Cl)c(Cl)c1-n1c(C(=O)c2ccc(C(F)(F)F)cc2O)cc(Cl)c1SCCc1ccccn1 | 610 nM |
| O=C(c1ccc(C(F)(F)F)cc1O)c1[nH]c(Cl)c(Cl)c1-n1c(C(=O)c2ccc(C(F)(F)F)cc2O)cc(Cl)c1Sc1nc2ccccc2s1 | 1180 nM |
| Cc1nnc(Sc2c(Cl)cc(C(=O)c3ccc(C(F)(F)F)cc3O)n2-c2c(C(=O)c3ccc(C(F)(F)F)cc3O)[nH]c(Cl)c2Cl)s1 | 1720 nM |

Test system: not listed separately
Assay: Selectivity index, ratio of CC50 for […] to IC50 for YFV-17D infected in […]
Assay type: toxicity, cell-based
Details: read-out: Ratio CC50/IC50

| SMILES | selectivity ratio |
| --- | --- |
| O=C(c1ccc(C(F)(F)F)cc1O)c1[nH]c(Cl)c(Cl)c1-n1c(C(=O)c2ccc(C(F)(F)F)cc2O)cc(Cl)c1SCCc1ccccn1 | 1.07 |
| O=C(c1ccc(C(F)(F)F)cc1O)c1[nH]c(Cl)c(Cl)c1-n1c(C(=O)c2ccc(C(F)(F)F)cc2O)cc(Cl)c1Sc1nc2ccccc2s1 | 1.43 |
| Cc1nnc(Sc2c(Cl)cc(C(=O)c3ccc(C(F)(F)F)cc3O)n2-c2c(C(=O)c3ccc(C(F)(F)F)cc3O)[nH]c(Cl)c2Cl)s1 | 2.02 |

Test system: not listed separately
Assay: Selectivity index, ratio of CC50 for […] to IC50 for DENV-NGC infected in […]
Assay type: toxicity, cell-based
Details: read-out: Ratio CC50/IC50

| SMILES | selectivity ratio |
| --- | --- |
| O=C(c1ccc(C(F)(F)F)cc1O)c1[nH]c(Cl)c(Cl)c1-n1c(C(=O)c2ccc(C(F)(F)F)cc2O)cc(Cl)c1Sc1nc2ccccc2s1 | 0.11 |
| Cc1nnc(Sc2c(Cl)cc(C(=O)c3ccc(C(F)(F)F)cc3O)n2-c2c(C(=O)c3ccc(C(F)(F)F)cc3O)[nH]c(Cl)c2Cl)s1 | 0.58 |

Test system: Zika virus
Assay: Antiviral activity against ZIKV-SMGC-1 infected in […] incubated for 7 days by CellTiter 96 luminescent cell viability assay
Assay type: functional, organism-based
Details: SMGC-1, BHK, 168 h

| SMILES | IC50 |
| --- | --- |
| [N-]=[N+]=NCCCSc1c(Cl)cc(C(=O)c2ccc(C(F)(F)F)cc2O)n1-c1c(C(=O)c2ccc(C(F)(F)F)cc2O)[nH]c(Cl)c1Cl | 90 nM |
| O=C(c1ccc(C(F)(F)F)cc1O)c1[nH]c(Cl)c(Cl)c1-n1c(C(=O)c2ccc(C(F)(F)F)cc2O)cc(Cl)c1SCCc1ccccn1 | 150 nM |
| O=C(c1ccc(C(F)(F)F)cc1O)c1[nH]c(Cl)c(Cl)c1-n1c(C(=O)c2ccc(C(F)(F)F)cc2O)cc(Cl)c1Sc1nc2ccccc2s1 | 910 nM |
| Cc1nnc(Sc2c(Cl)cc(C(=O)c3ccc(C(F)(F)F)cc3O)n2-c2c(C(=O)c3ccc(C(F)(F)F)cc3O)[nH]c(Cl)c2Cl)s1 | 780 nM |

Test system: not listed separately
Assay: Cytotoxicity against human RD cells infected with CA16 incubated for 3 days by CellTiter 96 luminescent cell viability assay
Assay type: toxicity, cell-based
Details: time 3 day

| SMILES | CC50 at 72 h |
| --- | --- |
| O=C(c1ccc(C(F)(F)F)cc1O)c1[nH]c(Cl)c(Cl)c1-n1c(C(=O)c2ccc(C(F)(F)F)cc2O)cc(Cl)c1SCCc1ccccn1 | 350 nM |
| O=C(c1ccc(C(F)(F)F)cc1O)c1[nH]c(Cl)c(Cl)c1-n1c(C(=O)c2ccc(C(F)(F)F)cc2O)cc(Cl)c1Sc1nc2ccccc2s1 | 1460 nM |
| Cc1nnc(Sc2c(Cl)cc(C(=O)c3ccc(C(F)(F)F)cc3O)n2-c2c(C(=O)c3ccc(C(F)(F)F)cc3O)[nH]c(Cl)c2Cl)s1 | 2640 nM |

Test system: Japanese encephalitis virus
Assay: Antiviral activity against JEV-SA14 infected in […] incubated for 7 days by CellTiter 96 luminescent cell viability assay
Assay type: functional, organism-based
Details: 168 h

| SMILES | IC50 |
| --- | --- |
| [N-]=[N+]=NCCCSc1c(Cl)cc(C(=O)c2ccc(C(F)(F)F)cc2O)n1-c1c(C(=O)c2ccc(C(F)(F)F)cc2O)[nH]c(Cl)c1Cl | 90 nM |
| O=C(c1ccc(C(F)(F)F)cc1O)c1[nH]c(Cl)c(Cl)c1-n1c(C(=O)c2ccc(C(F)(F)F)cc2O)cc(Cl)c1SCCc1ccccn1 | 620 nM |
| O=C(c1ccc(C(F)(F)F)cc1O)c1[nH]c(Cl)c(Cl)c1-n1c(C(=O)c2ccc(C(F)(F)F)cc2O)cc(Cl)c1Sc1nc2ccccc2s1 | 700 nM |
| Cc1nnc(Sc2c(Cl)cc(C(=O)c3ccc(C(F)(F)F)cc3O)n2-c2c(C(=O)c3ccc(C(F)(F)F)cc3O)[nH]c(Cl)c2Cl)s1 | 930 nM |

Test system: not listed separately
Assay: Selectivity index, ratio of CC50 for human RD cells to IC50 for EV71 infected in human RD cells
Assay type: toxicity, cell-based
Details: read-out: Ratio CC50/IC50

| SMILES | selectivity ratio |
| --- | --- |
| O=C(c1ccc(C(F)(F)F)cc1O)c1[nH]c(Cl)c(Cl)c1-n1c(C(=O)c2ccc(C(F)(F)F)cc2O)cc(Cl)c1SCCc1ccccn1 | 5.4 |

Test system: Coxsackievirus A16
Assay: Antiviral activity against CA16 infected in human RD cells incubated for 3 days by CellTiter 96 luminescent cell viability assay
Assay type: functional, organism-based
Details: Enterovirus A, 72 h

| SMILES | IC50 |
| --- | --- |
| O=C(c1ccc(C(F)(F)F)cc1O)c1[nH]c(Cl)c(Cl)c1-n1c(C(=O)c2ccc(C(F)(F)F)cc2O)cc(Cl)c1SCCc1ccccn1 | 20 nM |
| O=C(c1ccc(C(F)(F)F)cc1O)c1[nH]c(Cl)c(Cl)c1-n1c(C(=O)c2ccc(C(F)(F)F)cc2O)cc(Cl)c1Sc1nc2ccccc2s1 | 130 nM |
| Cc1nnc(Sc2c(Cl)cc(C(=O)c3ccc(C(F)(F)F)cc3O)n2-c2c(C(=O)c3ccc(C(F)(F)F)cc3O)[nH]c(Cl)c2Cl)s1 | 280 nM |

Test system: Enterovirus A71
Assay: Antiviral activity against EV71 infected in human RD cells incubated for 3 days by CellTiter 96 luminescent cell viability assay
Assay type: functional, organism-based
Details: Enterovirus A, 71, RD, 72 h

| SMILES | IC50 |
| --- | --- |
| O=C(c1ccc(C(F)(F)F)cc1O)c1[nH]c(Cl)c(Cl)c1-n1c(C(=O)c2ccc(C(F)(F)F)cc2O)cc(Cl)c1SCCc1ccccn1 | 50 nM |

Test system: not listed separately
Assay: Cytotoxicity against […] infected with YFV-17D incubated for 7 days by CellTiter 96 luminescent cell viability assay
Assay type: toxicity, cell-based
Details: time 7 day

| SMILES | CC50 at 168 h |
| --- | --- |
| O=C(c1ccc(C(F)(F)F)cc1O)c1[nH]c(Cl)c(Cl)c1-n1c(C(=O)c2ccc(C(F)(F)F)cc2O)cc(Cl)c1SCCc1ccccn1 | 610 nM |
| O=C(c1ccc(C(F)(F)F)cc1O)c1[nH]c(Cl)c(Cl)c1-n1c(C(=O)c2ccc(C(F)(F)F)cc2O)cc(Cl)c1Sc1nc2ccccc2s1 | 1170 nM |
| Cc1nnc(Sc2c(Cl)cc(C(=O)c3ccc(C(F)(F)F)cc3O)n2-c2c(C(=O)c3ccc(C(F)(F)F)cc3O)[nH]c(Cl)c2Cl)s1 | 1720 nM |

Test system: not listed separately
Assay: Cytotoxicity against human RD cells infected with EV71 incubated for 3 days by CellTiter 96 luminescent cell viability assay
Assay type: toxicity, cell-based
Details: time 3 day

| SMILES | CC50 at 72 h |
| --- | --- |
| O=C(c1ccc(C(F)(F)F)cc1O)c1[nH]c(Cl)c(Cl)c1-n1c(C(=O)c2ccc(C(F)(F)F)cc2O)cc(Cl)c1SCCc1ccccn1 | 270 nM |

Test system: Dengue virus
Assay: Antiviral activity against DENV-NGC-1 infected in […] incubated for 7 days by CellTiter 96 luminescent cell viability assay
Assay type: functional, organism-based
Details: NGC-1, BHK, 168 h

| SMILES | IC50 |
| --- | --- |
| O=C(c1ccc(C(F)(F)F)cc1O)c1[nH]c(Cl)c(Cl)c1-n1c(C(=O)c2ccc(C(F)(F)F)cc2O)cc(Cl)c1Sc1nc2ccccc2s1 | 1040 nM |
| Cc1nnc(Sc2c(Cl)cc(C(=O)c3ccc(C(F)(F)F)cc3O)n2-c2c(C(=O)c3ccc(C(F)(F)F)cc3O)[nH]c(Cl)c2Cl)s1 | 760 nM |

Test system: not listed separately
Assay: Selectivity index, ratio of CC50 for human RD cells to IC50 for CA16 infected in human RD cells
Assay type: toxicity, cell-based
Details: read-out: Ratio CC50/IC50

| SMILES | selectivity ratio |
| --- | --- |
| O=C(c1ccc(C(F)(F)F)cc1O)c1[nH]c(Cl)c(Cl)c1-n1c(C(=O)c2ccc(C(F)(F)F)cc2O)cc(Cl)c1SCCc1ccccn1 | 17.5 |
| O=C(c1ccc(C(F)(F)F)cc1O)c1[nH]c(Cl)c(Cl)c1-n1c(C(=O)c2ccc(C(F)(F)F)cc2O)cc(Cl)c1Sc1nc2ccccc2s1 | 11.3 |
| Cc1nnc(Sc2c(Cl)cc(C(=O)c3ccc(C(F)(F)F)cc3O)n2-c2c(C(=O)c3ccc(C(F)(F)F)cc3O)[nH]c(Cl)c2Cl)s1 | 9.43 |

Test system: Yellow fever virus
Assay: Antiviral activity against YFV-17D infected in […] incubated for 7 days by CellTiter 96 luminescent cell viability assay
Assay type: functional, organism-based
Details: 168 h

| SMILES | IC50 |
| --- | --- |
| O=C(c1ccc(C(F)(F)F)cc1O)c1[nH]c(Cl)c(Cl)c1-n1c(C(=O)c2ccc(C(F)(F)F)cc2O)cc(Cl)c1SCCc1ccccn1 | 570 nM |
| O=C(c1ccc(C(F)(F)F)cc1O)c1[nH]c(Cl)c(Cl)c1-n1c(C(=O)c2ccc(C(F)(F)F)cc2O)cc(Cl)c1Sc1nc2ccccc2s1 | 820 nM |
| Cc1nnc(Sc2c(Cl)cc(C(=O)c3ccc(C(F)(F)F)cc3O)n2-c2c(C(=O)c3ccc(C(F)(F)F)cc3O)[nH]c(Cl)c2Cl)s1 | 850 nM |
